Experimental data from article PMC3073400 (Nature biotechnology, 2010).

Assay type: in vivo
Conditions: rat brain, 500 μM dopamine alone, no contrast agent, data not shown

SMILES: NCCc1ccc(O)c(O)c1 [dopamine]
- MRI signal changes on infusion alone: no noticeable signal changes
